Like-named read-outs stand apart in the source and are kept apart here. Values belong to the compound of their own block, whether it stands above or below them.
Key:
[1] = Nephelometry (compound aggregation); type: physicochemical
Procedure: Nephelometry was performed to determine the relative propensity of the inhibitor compounds to aggregate in solution, based on the light scattering properties of the molecular aggregates. Compound aggregation can lead to artifact inhibitory effects, thus confounding a study of mechanism of inhibition. Compounds were tested for aggregation in a 96-well plate format, final volume 200 μL, using the phosphatase activity assay buffer at pH 7.5 without added pNPP. […] Eight wells were used for blanks and for each compound concentration. Plates were analyzed at two separate gains to determine if the signals were at saturating levels. Progesterone was used as a positive control for compound aggregation. Data were collected using a BMG […] Plus, equipped with a 635 nm laser.

PTP1B [2] = target: T1, PTP1B (Homo sapiens, UniProt P18031); parameters: method as in PMID 16717135; conditions: read-out: IC50, PTP1B (reported); cited from earlier work
T1 construct: purchased Creative Biomart
T1 sequence (P18031 1-435): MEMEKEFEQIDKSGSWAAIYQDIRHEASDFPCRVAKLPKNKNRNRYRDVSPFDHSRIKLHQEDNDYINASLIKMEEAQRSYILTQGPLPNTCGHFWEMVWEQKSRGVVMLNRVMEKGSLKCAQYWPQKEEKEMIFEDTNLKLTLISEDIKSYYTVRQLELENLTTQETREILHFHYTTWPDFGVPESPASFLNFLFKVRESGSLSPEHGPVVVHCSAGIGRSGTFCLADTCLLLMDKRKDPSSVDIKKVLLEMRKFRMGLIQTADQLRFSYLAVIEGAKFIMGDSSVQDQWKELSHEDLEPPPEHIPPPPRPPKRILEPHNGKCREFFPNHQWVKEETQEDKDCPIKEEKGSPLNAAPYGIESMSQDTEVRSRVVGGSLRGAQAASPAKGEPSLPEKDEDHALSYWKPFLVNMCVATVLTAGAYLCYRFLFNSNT

DUSP5 PD(WT) = target: T2, DUSP5 PD(WT) (Homo sapiens, UniProt Q16690); test: DUSP5 PD(WT) in vitro phosphatase assay with pNPP as substrate; type: biochemical
T2 construct: The DUSP5 phosphatase domain (DUSP5 PD(WT)) gene was synthesized by Blue Heron; made in house
T2 sequence (Q16690 178-319 limits assumed): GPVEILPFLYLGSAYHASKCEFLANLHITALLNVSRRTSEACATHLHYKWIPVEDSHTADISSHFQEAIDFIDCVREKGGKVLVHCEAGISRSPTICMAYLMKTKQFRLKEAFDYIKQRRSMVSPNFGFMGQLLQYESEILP
Procedure: The DUSP5 phosphatase domain (DUSP5 PD(WT)) gene was synthesized by Blue Heron (Bothell, WA) and the protein expressed and purified as previously described. To measure the enzymatic activity of wild type phosphatase domain of DUSP5 {DUSP5 PD(WT)} and the inhibitory capacity of selected compounds, an in vitro phosphatase assay was utilized as previously described. Briefly, assays without and with inhibitors were performed in Greiner 96-well clear bottom plates with a total assay volume of 200 μL. The assay buffer contained 100 mM Tris, 100 mM NaCl, 5 mM MgCl2 • 6H2O and 1 mM dithiothreitol (DTT) at pH 7.5. p-nitrophenyl phosphate (pNPP, Sigma Aldrich) 5 mM was used as the substrate. DUSP5 PD(WT) dephosphorylates pNPP to yield p-nitrophenolate, which absorbs at 405 nm, having an extinction coefficient of 18,000 M^-1 cm^-1. The reaction was initiated by the addition of 4 μL of a 29 μM DUPSP5 PD(WT) enzyme stock and absorbance was monitored at 25 °C over time using a Spectramax M5 microplate reader (Molecular Devices). Blanks contained only buffer and pNPP. Negative controls (without inhibitor) contained assay buffer with pNPP and DUSP5 PD(WT).
Appropriate vehicles were added to the blank and negative control wells. A minimum of three replicate wells was run for each condition and at each inhibitor concentration. The replicate wells were averaged to give a single data point. The reaction was initiated upon addition of 4 μL of a 29 μM enzyme stock which was dispensed to each of the wells except the blanks utilizing a single channel pipette. The resulting DUSP5 PD(WT) concentration in the assay buffer was 0.58 μM. The plate was returned to the plate reader, shaken, and absorbance recorded at 25 °C every thirty seconds over a ten to sixty mins time course. In selected experiments the plate was returned to the plate reader following a 10 mins recording for one or two additional 10 mins absorbance recordings.
(§1) Initial rate values obtained from the plate reader were normalized to percent activity relative to the mean negative control rates. Graphpad Prism 6 software was utilized to calculate a non-linear regression (curve fit) using a variable slope model equation, constraining the top and bottom values to 100% activity and 0% activity, respectively, using the following equation:2 vi=Bottom+Top−Bottom/1+10^logIC50−x*HillSlope where v i is the initial rate.
To investigate the mechanism of DUSP5 PD(WT) inhibition by RR601, initial velocity inhibition profiles of RR601 were obtained in a 96-well plate format by measuring DUSP5 PD(WT) initial velocities in assay buffer containing of 1, 3, 9, 27 and 81 mM pNPP and 0, 3, 10, 30 and 75 μM RR601 at each pNPP concentration. Reactions were initiated by the addition of DUSP5 PD(WT) to a final concentration of 0.6 μM in each of the wells, excluding the blank. The data were fitted to a global competitive inhibition model (Graphpad Prism) using the following equation:3 vi=VmaxS/Km1+I/Ki+S where v is the initial velocity, V max the maximum velocity, K m the Michaelis constant, [S] the concentration of pNPP, [I] the concentration of RR601 and K i the inhibition constant.

PTP1B [3] = target: T1, PTP1B; test: PTP1B in vitro phosphatase assay with pNPP; type: biochemical
Procedure: To examine the capacity of RR601 to inhibit protein-tyrosine phosphatase 1B (PTP1B), (Creative Biomart), activity, an in vitro phosphatase assay was adapted from. Assays with and without inhibitor were performed in Corning 96-well clear bottom plates having a non-binding surface, with a total assay volume of 200 μL. The assay buffer contained 100 mM Tris, 100 mM NaCl, 1 mM EDTA at pH 7.0 and 2.2 mM pNPP as the substrate. […] The reaction was initiated upon addition of 4 μL of a 5.0 μM PTP1B stock, which was dispensed to each of the wells except the blanks using a single channel pipette. The resulting PTPB1 concentration in the assay buffer was 0.1 μM. […] Assays were performed in 96-well plates in a similar manner as reported above. The assay buffer contained 50 mM HEPES (pH 7.4), 2 mM EDTA, 3 mM DTT and 100 mM NaCl. An initial experiment was performed to determine the kinetic parameters of the SHP-2 enzyme. The reaction was initiated with the addition of 4 μL of a 0.35 μM stock SHP-2 enzyme into wells containing 0, 1, 3, 9, 27 and 81 μM pNPP. The SHP-2 assay concentration was 7 nM. Absorbance was recorded every 30 s over a ten minute assay period at a temperature of 25 °C (Additional file 1: Fig. S8). Initial velocities were fit to the Michaelis-Menten equation:1 v=VmaxS/Km+S where v is the initial velocity, V max the maximum velocity, K m the Michaelis constant, and [S] the pNPP concentration. […] Assay buffer contained 7.5 mM pNPP, roughly one-half the value of the Michaelis constant determined from the study above. Reactions were initiated with the addition of 4 μL SHP-2 enzyme, resulting in a final assay enzyme concentration of 7 nM.
as §1

SHP2 = system: SHP2; parameters: method as in PMID 16717135; conditions: read-out: IC50, SHP2 (reported); cited from earlier work
SHP-2 = target: T3, SHP-2 (Homo sapiens, UniProt Q06124); test: SHP-2 in vitro phosphatase assay with pNPP; type: biochemical
T3 construct: purchased Creative Biomart
T3 sequence (Q06124 1-593): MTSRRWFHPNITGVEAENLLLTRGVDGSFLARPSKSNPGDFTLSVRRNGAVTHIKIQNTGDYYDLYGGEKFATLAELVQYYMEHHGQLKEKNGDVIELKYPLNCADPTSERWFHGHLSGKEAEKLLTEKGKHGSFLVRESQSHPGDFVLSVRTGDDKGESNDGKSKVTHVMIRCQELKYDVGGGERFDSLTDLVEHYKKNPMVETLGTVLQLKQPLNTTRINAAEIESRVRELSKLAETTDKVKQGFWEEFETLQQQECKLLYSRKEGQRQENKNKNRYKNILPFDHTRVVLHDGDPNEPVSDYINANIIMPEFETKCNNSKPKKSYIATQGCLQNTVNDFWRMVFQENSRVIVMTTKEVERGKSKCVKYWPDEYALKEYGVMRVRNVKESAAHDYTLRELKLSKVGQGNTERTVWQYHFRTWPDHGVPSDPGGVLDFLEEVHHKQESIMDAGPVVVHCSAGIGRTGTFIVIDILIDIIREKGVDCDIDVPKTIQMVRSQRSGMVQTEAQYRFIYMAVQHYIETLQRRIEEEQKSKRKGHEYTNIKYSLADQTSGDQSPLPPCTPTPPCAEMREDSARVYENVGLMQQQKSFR
From the text: as §1

GST-DUSP5 = target: T4, GST-DUSP5 (Homo sapiens, UniProt Q16690); test: In vitro ERK dephosphorylation (pERK) western blot assay; type: biochemical; conditions: full-length GST-DUSP5, pERK as substrate; global fit of three experiments
T4 construct: this assay was done with full-length protein (containing both domains), and using pERK as substrate; made in house
T4 sequence (Q16690 1-384): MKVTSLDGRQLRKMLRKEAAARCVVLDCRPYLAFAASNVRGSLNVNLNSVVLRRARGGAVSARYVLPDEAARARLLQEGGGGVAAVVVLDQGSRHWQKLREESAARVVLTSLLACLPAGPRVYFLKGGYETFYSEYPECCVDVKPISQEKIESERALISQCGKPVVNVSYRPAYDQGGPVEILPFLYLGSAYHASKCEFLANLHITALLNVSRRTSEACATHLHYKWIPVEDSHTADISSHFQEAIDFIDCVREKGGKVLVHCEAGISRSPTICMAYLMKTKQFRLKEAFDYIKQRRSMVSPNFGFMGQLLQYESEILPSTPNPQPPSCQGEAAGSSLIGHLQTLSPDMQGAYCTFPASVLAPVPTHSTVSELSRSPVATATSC

SMILES: Nc1cccc2c(O)cc(S(=O)(=O)O)cc12 [RR535, 1-amino-5-naphthol-7-sulfonic acid]
Compound aggregation over the concentration range tested (nephelometry) ([1]; 1 to 300 μM, stocks stored in the dark or exposed to room light for seventeen days): little or no measurable aggregation

Concentration at which aggregation begins (nephelometry) ([1]; phosphatase assay buffer pH 7.5 without pNPP): approximately 100 μM
SMILES: CC(=O)[C@H]1CC[C@H]2[C@@H]3CCC4=CC(=O)CC[C@]4(C)[C@H]3CC[C@]12C [progesterone, reference compound]

IC50, DUSP5 PD(WT) (DUSP5 PD(WT); pNPP, at 60 minutes, 0.1 to 300 μM): did not inhibit | IC50 (DUSP5 PD(WT); pNPP, at 60 minutes, 0.1 to 300 μM, read-out: IC50, DUSP5 PD(WT)): > 3000 µM | Inhibition of PTP1B activity, initially (PTP1B [3]; 0.1 to 300 μM, start of assay): did not initially inhibit | IC50 (PTP1B [3]; pNPP, continuous monitoring over 60 min, read-out: IC50, PTP1B, after 50 mins of the reaction assay): 723 ± 302 µM | IC50 (PTP1B [3]; pNPP, continuous monitoring over 60 min, read-out: IC50, PTP1B, after 60 mins of the reaction assay): 337 ± 130 µM
SMILES: O=S(=O)(O)c1ccc2cc(N=Nc3cc(S(=O)(=O)O)c4cccnc4c3O)ccc2c1 [NSC-87877]
IC50 (PTP1B [2]): 1.7 µM | IC50 (SHP2): […]

IC50 (DUSP5 PD(WT); MP Biomedicals and RR535 stocks exposed to light 90 days, RR601 freshly prepared, pNPP, ± SE, read-out: DUSP5 PD(WT) inhibitor IC50, assay reaction period 15 – 25 min): 36.5 ± 1.5 µM | Vmax of DUSP5 PD(WT), Lineweaver-Burk (DUSP5 PD(WT); in the presence of 3 µM RR601): 0.54 µM/min | Vmax of DUSP5 PD(WT), Lineweaver-Burk (DUSP5 PD(WT); in the presence of 10 µM RR601): 0.61 µM/min | Vmax of DUSP5 PD(WT), Lineweaver-Burk (DUSP5 PD(WT); in the presence of 30 µM RR601): 0.62 µM/min | Vmax of DUSP5 PD(WT), Lineweaver-Burk (DUSP5 PD(WT); in the presence of 75 µM RR601): 0.69 µM/min | Mechanism of DUSP5 PD(WT) inhibition (DUSP5 PD(WT); initial velocity studies varying pNPP and RR601): competitive inhibitor | IC50 (DUSP5 PD(WT); pNPP substrate, read-out: IC50, DUSP5 PD(WT) (summary value)): 36 µM | IC50 (DUSP5 PD(WT); read-out: DUSP5 PD(WT) inhibitor IC50, assay reaction period 0 – 10 min, MP Biomedicals and RR535 stocks exposed to light 90 days, RR601 freshly prepared, pNPP, ± SE): 36.9 ± 3.9 µM | IC50 (DUSP5 PD(WT); read-out: DUSP5 PD(WT) inhibitor IC50, assay reaction period 30 – 40 min, MP Biomedicals and RR535 stocks exposed to light 90 days, RR601 freshly prepared, pNPP, ± SE): 34.5 ± 1.4 µM | IC50 (PTP1B [3]; pNPP 2.2 mM, 10 min recording, ± SE, read-out: IC50, PTP1B): 2.1 ± 0.2 µM | Selectivity for PTP1B versus DUSP5 (PTP1B [3]; ratio of IC50 values): 18 fold | Ki (SHP-2; 1-30 mM pNPP, 0-3.0 µM RR601, ± SE, read-out: Ki, SHP-2, global competitive model fit): 0.38 ± 0.05 µM | IC50 (SHP-2; pNPP 7.5 mM, 10 min reaction, ± SE): 1.1 ± 0.1 µM | IC50 (GST-DUSP5): 4.8 µM
SMILES: O=S(=O)(O)c1cc(O)c2cccc(/N=N/c3cccc4c(O)cc(S(=O)(=O)O)cc34)c2c1 [RR601]
Mechanism of SHP-2 inhibition (SHP-2; substrate concentrations less than 30 mM): fit best to a competitive inhibition model

Reference: PMC5452347, “Serendipitous discovery of light-induced (In Situ) formation of an Azo-bridged dimeric sulfonated naphthol as a potent PTP1B inhibitor” (BMC Biochemistry, 2017)
